The values that follow come from BindingDB's records for doi:10.1016/s0960-894x(01)00004-x (Seoul National University, 2001).

In the test the target is Prostaglandin G/H synthase 1 (Oryctolagus cuniculus). Put plainly: Inhibitory activity against Prostaglandin G/H synthase 1 from rabbit renal microsomes.
The term IC50 denotes the point on the concentration scale where inhibition reaches its midpoint. Lower therefore signals inhibition by little substance. `C=C[C@@]1(C)CC=C2C(CCC3[C@](C)(C(=O)NO)CCC[C@@]23C)C1` (stereo partly drawn) [(1R,4aR,7S)-1,4a,7-Trimethyl-7-vinyl-1,2,3,4,4a,6,7,8,8a,9,10,10a-dodecahydro-phenanthrene-1-carboxylic acid hydroxyamide]: inhibition was half-maximal at 45.6 µM (IC50). Next, `C=C[C@@]1(C)CC=C2C(CCC3[C@](C)(C(=O)OC)CCC[C@@]23C)C1` (stereo partly drawn) [(1R,4aR,7S)-1,4a,7-Trimethyl-7-vinyl-1,2,3,4,4a,6,7,8,8a,9,10,10a-dodecahydro-phenanthrene-1-carboxylic acid methyl ester]: > 1000 µM; `C[C@]1(CCF)CC=C2C(CCC3[C@](C)(C(=O)F)CCC[C@@]23C)C1` (stereo partly drawn) [(1R,4aR,7S)-7-(2-Fluoro-ethyl)-1,4a,7-trimethyl-1,2,3,4,4a,6,7,8,8a,9,10,10a-dodecahydro-phenanthrene-1-carbonyl fluoride]: 18.4 µM; `CC[C@@]1(C)CC=C2C(CCC3[C@](C)(C(=O)O)CCC[C@@]23C)C1` (stereo partly drawn) [(1R,4aR,7S)-7-Ethyl-1,4a,7-trimethyl-1,2,3,4,4a,6,7,8,8a,9,10,10a-dodecahydro-phenanthrene-1-carboxylic acid]: 229 µM. On to `C=C[C@@]1(C)CC=C2C(CCC3[C@](C)(CC(=O)O)CCC[C@@]23C)C1` (stereo partly drawn) [((1S,4aR,7S)-1,4a,7-Trimethyl-7-vinyl-1,2,3,4,4a,6,7,8,8a,9,10,10a-dodecahydro-phenanthren-1-yl)-acetic acid], for which the half-maximal inhibitory concentration (IC50) came out at 28.1 µM. To `C=C[C@@]1(C)CC=C2C(CCC3[C@](C)(CCC/C=C/C(=O)O)CCC[C@@]23C)C1` (stereo partly drawn) [(E)-6-((1R,4aR,7S)-1,4a,7-Trimethyl-7-vinyl-1,2,3,4,4a,6,7,8,8a,9,10,10a-dodecahydro-phenanthren-1-yl)-hex-2-enoic acid] belongs 32.7 µM; to `C=C[C@@]1(C)CC=C2C(CCC3[C@](C)(CO)CCC[C@@]23C)C1` (some centres not stated) [acanthol], 791 µM.
